From ChEMBL document CHEMBL4477252, “Optimization of microtubule affinity regulating kinase (MARK) inhibitors with improved physical properties” (Bioorg Med Chem Lett, 2016)
Values after ≈ are worked out from the molar mass of the structure shown.

Tests used:
[1] = target: MDR1 (ABCB1, P-glycoprotein) (Rattus norvegicus, UniProt P43245); assay: Substrate activity at rat MDR1 expressed in LLC-PK1 cells assessed as efflux ratio of permeability across basolateral to apical over apical to basolateral side at 5 uM; format: ADME, cell-based
[2] = target: T1, Serine/threonine-protein kinase TAO2 (Homo sapiens, UniProt Q9UL54); assay: Inhibition of recombinant human GST-tagged TAOK2 catalytic domain expressed in baculovirus expression system by Z'-LYTE assay
T1 sequence (Q9UL54 whole entry): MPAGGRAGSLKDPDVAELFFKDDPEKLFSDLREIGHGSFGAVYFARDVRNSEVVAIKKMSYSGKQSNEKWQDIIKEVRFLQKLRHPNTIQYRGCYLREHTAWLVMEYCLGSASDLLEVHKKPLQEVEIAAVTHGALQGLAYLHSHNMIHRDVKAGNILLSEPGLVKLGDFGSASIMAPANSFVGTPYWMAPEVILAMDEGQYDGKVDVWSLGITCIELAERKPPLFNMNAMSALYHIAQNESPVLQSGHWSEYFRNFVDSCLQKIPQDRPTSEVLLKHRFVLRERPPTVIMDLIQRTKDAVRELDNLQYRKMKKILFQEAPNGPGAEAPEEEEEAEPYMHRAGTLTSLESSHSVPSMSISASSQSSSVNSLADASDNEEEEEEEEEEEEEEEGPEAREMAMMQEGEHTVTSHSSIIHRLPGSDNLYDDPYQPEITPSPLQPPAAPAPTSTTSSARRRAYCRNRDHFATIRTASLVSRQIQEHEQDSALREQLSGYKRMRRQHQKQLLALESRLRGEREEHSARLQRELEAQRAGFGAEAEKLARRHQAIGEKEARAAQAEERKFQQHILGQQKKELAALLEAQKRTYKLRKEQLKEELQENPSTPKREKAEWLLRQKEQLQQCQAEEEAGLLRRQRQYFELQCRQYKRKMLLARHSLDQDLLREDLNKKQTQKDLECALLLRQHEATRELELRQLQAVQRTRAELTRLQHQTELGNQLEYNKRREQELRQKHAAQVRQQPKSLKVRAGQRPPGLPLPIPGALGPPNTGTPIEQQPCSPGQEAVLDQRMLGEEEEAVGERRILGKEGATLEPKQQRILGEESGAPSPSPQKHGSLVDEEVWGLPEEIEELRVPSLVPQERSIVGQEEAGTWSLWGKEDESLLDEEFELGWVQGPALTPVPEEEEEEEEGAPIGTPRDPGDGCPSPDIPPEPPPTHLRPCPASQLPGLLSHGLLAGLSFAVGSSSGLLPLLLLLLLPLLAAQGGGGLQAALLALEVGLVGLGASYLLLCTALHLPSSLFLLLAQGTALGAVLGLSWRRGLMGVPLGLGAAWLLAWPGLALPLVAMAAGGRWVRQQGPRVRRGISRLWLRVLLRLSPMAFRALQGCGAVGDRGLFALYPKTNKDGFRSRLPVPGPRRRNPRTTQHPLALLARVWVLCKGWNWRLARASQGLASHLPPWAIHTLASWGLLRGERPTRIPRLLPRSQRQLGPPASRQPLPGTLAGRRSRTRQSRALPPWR

[3] = target: Mitogen-activated protein kinase 14 (Homo sapiens, UniProt Q16539); assay: Inhibition of full-length recombinant human GST-tagged MAPK14 alpha expressed in Escherichia coli by Z'-LYTE assay
Angiopoietin-1 receptor = Angiopoietin-1 receptor (Homo sapiens, UniProt Q02763); assay: Inhibition of recombinant human GST-tagged cytoplasmic TEK expressed in baculovirus expression system by Z'-LYTE assay
[4] = target: Macrophage colony-stimulating factor 1 receptor (Homo sapiens, UniProt P07333); assay: Inhibition of recombinant human His-tagged cytoplasmic CSF1R expressed in baculovirus expression system by Z'-LYTE assay
[5] = target: Tyrosine-protein kinase Lck (Homo sapiens, UniProt P06239); assay: Inhibition of full-length recombinant human His-tagged LCK expressed in baculovirus expression system by Z'-LYTE assay
[6] = target: Mitogen-activated protein kinase 1 (Homo sapiens, UniProt P28482); assay: Inhibition of full-length recombinant human GST-tagged MAPK1 expressed in Escherichia coli by Z'-LYTE assay
[7] = Oral bioavailability in Sprague-Dawley rat at 5 mL/kg administered through gastric gavage measured after 24 hrs by LC-MS/MS analysis; format: ADME, organism-based; settings: in vivo
[8] = target: T2, Tyrosine-protein kinase ZAP-70 (Homo sapiens, UniProt P43403); assay: Inhibition of full-length recombinant human His-tagged cytoplasmic ZAP70 expressed in baculovirus expression system by Z'-LYTE assay
T2 sequence (P43403 whole entry): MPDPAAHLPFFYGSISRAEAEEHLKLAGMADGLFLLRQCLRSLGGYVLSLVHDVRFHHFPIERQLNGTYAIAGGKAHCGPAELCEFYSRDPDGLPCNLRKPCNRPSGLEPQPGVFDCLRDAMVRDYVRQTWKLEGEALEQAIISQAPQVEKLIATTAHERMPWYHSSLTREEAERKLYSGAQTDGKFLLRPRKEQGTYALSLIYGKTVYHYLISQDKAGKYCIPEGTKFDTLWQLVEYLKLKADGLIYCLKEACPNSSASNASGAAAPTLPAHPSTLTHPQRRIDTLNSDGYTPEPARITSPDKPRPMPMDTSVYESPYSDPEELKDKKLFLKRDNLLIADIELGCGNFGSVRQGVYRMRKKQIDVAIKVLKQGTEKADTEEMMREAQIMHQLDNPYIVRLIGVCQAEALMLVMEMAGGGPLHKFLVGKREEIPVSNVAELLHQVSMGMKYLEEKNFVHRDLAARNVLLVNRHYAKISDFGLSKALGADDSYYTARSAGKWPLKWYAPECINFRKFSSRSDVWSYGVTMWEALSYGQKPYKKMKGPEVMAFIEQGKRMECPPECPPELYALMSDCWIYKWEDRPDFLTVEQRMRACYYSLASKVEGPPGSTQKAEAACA

[9] = Inhibition of full-length recombinant human GST-tagged PKG2 expressed in baculovirus expression system by Z'-LYTE assay
[10] = Solubility of the compound at pH 2; format: physicochemical; settings: buffer
[11] = Half life in Beagle dog at 0.5 mL/kg, iv administered through catheter or 5 mL/kg, administered through gastric gavage measured after 24 hrs by LC-MS/MS analysis; format: ADME, organism-based, Canis lupus familiaris; settings: in vivo
[12] = Half life in Sprague-Dawley rat at 1 mL/kg, iv administered through catheter measured after 24 hrs by LC-MS/MS analysis; format: ADME, organism-based; settings: in vivo
[13] = Volume of distribution in Beagle dog at 0.5 mL/kg, iv administered through catheter or 5 mL/kg, administered through gastric gavage measured after 24 hrs by LC-MS/MS analysis; format: ADME, organism-based, Canis lupus familiaris; settings: in vivo
[14] = Solubility of the compound at pH 7; format: physicochemical; settings: buffer
[15] = Clearance in Beagle dog at 0.5 mL/kg, iv administered through catheter measured after 24 hrs by LC-MS/MS analysis; format: ADME, organism-based, Canis lupus familiaris; settings: in vivo

Chain of Mitogen-activated protein kinase 14 (Q16539 whole entry): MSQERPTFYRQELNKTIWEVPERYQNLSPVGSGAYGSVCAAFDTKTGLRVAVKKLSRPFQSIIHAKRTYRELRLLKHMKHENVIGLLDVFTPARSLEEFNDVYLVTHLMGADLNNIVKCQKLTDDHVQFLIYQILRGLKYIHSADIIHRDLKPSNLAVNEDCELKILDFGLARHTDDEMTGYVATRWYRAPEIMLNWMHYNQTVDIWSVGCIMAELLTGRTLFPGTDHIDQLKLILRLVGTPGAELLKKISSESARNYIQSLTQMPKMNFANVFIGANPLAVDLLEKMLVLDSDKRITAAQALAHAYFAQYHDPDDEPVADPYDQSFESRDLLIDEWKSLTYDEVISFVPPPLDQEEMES
Chain of Angiopoietin-1 receptor (Q02763 whole entry): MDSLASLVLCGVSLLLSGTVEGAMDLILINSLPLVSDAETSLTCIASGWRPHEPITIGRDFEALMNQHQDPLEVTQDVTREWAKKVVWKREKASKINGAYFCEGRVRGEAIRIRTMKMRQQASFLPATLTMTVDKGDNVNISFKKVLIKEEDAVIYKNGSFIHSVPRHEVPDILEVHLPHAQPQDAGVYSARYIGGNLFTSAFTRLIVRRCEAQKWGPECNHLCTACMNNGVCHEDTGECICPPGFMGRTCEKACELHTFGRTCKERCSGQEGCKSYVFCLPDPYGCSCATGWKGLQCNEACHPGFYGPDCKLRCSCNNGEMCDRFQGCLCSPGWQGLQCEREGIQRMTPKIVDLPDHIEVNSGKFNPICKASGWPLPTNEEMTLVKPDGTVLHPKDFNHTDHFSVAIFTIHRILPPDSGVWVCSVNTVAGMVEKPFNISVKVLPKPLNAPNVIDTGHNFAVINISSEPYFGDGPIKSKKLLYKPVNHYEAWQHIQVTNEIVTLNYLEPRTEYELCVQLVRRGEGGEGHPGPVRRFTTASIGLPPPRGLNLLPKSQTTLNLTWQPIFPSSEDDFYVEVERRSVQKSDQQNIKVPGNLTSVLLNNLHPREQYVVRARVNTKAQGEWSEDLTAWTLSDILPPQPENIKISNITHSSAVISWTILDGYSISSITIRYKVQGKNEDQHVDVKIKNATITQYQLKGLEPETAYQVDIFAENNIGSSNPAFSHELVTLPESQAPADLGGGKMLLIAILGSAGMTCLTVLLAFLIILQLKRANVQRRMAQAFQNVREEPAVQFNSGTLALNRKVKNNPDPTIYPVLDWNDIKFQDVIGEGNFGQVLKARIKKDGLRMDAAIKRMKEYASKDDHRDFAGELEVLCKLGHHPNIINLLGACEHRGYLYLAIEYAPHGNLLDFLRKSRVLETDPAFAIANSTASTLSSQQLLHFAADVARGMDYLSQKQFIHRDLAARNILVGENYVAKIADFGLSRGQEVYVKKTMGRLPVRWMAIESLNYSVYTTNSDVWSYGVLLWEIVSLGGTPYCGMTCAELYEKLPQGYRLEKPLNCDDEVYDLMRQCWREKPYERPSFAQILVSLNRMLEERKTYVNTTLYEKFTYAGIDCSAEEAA
Chain of Mitogen-activated protein kinase 1 (P28482 whole entry): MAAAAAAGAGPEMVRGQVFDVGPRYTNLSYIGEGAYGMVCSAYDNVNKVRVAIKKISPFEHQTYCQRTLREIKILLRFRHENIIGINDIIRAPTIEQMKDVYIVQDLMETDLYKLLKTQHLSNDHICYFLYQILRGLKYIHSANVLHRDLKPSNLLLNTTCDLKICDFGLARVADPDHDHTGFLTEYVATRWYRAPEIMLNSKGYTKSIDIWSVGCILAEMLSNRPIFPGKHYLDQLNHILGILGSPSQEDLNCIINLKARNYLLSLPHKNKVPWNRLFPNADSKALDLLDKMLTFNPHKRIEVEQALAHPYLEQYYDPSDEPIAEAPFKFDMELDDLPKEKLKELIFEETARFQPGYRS
Chain of Tyrosine-protein kinase Lck (P06239 whole entry): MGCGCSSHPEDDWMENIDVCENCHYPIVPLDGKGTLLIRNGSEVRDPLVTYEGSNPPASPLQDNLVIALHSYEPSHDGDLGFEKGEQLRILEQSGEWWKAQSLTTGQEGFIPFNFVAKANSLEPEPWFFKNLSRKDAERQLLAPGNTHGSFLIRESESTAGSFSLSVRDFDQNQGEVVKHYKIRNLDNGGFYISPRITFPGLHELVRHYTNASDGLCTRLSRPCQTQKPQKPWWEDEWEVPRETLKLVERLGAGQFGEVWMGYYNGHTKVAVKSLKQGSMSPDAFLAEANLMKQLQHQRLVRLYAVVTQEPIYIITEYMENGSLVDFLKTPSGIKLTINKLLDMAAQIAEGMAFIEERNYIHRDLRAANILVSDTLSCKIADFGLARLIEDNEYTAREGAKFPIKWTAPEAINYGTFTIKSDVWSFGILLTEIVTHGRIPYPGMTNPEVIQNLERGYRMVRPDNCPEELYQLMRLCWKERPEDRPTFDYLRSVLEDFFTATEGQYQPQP
Chain of Macrophage colony-stimulating factor 1 receptor (P07333 whole entry): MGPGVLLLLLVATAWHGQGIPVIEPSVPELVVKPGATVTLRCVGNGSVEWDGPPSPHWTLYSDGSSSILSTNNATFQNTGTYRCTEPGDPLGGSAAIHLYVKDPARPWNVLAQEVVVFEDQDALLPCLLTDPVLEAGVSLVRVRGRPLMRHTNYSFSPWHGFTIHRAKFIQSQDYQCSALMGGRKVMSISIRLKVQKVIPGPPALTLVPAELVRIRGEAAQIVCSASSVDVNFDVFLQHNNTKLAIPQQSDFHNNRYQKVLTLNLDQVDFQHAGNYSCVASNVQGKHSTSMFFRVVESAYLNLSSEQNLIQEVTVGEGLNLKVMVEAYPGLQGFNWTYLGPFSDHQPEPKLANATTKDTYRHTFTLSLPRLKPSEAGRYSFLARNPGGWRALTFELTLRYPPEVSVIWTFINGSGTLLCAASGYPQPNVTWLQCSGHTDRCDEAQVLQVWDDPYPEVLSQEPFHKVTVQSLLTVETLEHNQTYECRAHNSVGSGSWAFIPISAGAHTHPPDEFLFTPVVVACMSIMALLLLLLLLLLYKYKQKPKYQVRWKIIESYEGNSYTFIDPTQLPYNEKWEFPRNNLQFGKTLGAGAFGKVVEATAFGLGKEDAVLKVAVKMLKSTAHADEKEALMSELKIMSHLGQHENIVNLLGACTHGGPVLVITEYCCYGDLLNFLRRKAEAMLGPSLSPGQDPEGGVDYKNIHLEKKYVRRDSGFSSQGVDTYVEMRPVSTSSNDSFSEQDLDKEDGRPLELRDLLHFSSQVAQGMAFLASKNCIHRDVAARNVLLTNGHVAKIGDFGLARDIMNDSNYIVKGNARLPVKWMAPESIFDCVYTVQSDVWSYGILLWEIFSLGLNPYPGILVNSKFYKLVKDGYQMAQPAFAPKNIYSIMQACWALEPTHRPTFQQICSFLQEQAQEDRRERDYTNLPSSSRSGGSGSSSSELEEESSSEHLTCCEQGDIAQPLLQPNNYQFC
Chain of MDR1 (ABCB1, P-glycoprotein) (P43245 whole entry, the tested form may be a part): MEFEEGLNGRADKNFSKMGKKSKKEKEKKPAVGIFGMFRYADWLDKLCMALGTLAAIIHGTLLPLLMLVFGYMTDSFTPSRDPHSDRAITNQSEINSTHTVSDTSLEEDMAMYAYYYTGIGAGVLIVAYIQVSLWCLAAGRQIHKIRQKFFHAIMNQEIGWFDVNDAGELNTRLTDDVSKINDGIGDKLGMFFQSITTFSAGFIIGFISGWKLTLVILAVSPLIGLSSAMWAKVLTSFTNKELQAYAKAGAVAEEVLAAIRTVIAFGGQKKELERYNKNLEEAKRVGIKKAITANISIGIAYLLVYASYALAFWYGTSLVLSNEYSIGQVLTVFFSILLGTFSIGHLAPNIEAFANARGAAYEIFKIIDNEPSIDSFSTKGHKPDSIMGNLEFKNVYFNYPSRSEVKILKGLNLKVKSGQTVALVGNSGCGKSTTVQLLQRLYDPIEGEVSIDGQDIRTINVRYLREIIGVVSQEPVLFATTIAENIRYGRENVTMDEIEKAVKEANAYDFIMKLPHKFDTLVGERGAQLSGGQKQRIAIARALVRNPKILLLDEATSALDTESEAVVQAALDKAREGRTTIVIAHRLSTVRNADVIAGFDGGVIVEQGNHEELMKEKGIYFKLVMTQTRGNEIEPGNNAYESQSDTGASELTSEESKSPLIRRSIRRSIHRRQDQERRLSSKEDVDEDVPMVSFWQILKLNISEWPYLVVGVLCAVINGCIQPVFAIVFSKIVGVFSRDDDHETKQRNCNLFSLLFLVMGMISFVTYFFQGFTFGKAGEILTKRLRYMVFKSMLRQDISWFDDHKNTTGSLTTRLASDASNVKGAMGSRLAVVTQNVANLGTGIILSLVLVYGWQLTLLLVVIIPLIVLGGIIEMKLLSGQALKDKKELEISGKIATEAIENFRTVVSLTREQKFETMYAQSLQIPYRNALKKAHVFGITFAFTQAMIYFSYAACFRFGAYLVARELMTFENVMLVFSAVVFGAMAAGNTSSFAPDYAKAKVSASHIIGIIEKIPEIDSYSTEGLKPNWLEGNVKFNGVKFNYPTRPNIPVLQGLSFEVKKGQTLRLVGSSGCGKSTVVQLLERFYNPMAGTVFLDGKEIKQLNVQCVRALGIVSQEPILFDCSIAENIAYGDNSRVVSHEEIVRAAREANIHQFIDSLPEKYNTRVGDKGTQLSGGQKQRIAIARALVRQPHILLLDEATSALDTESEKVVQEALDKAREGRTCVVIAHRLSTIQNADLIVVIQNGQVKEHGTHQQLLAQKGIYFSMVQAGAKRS

| SMILES | efflux ratio at 5 µM [1] | IC50 [2] | IC50 [3] | IC50 (Angiopoietin-1 receptor) | IC50 [4] | IC50 [5] | IC50 [6] | bioavailability [7] | IC50 [8] | IC50 [9] | solubility [10] | half-life [11] | half-life [12] | Vd [13] | solubility [14] | clearance [15] |
| --- | --- | --- | --- | --- | --- | --- | --- | --- | --- | --- | --- | --- | --- | --- | --- | --- |
| Cn1cc(-c2cnc3c(-c4csc(C(=O)NCC(F)(F)F)c4)cnn3c2)cn1 | 1.9 | 25000 nM | 36000 nM | 4700 nM | 100 nM | 37 nM | 18000 nM | 53% | > 100000 nM | 480 nM | < 3 µM | – | – | – | – | – |
| Cc1sc(C(=O)N[C@@H]2[C@H](N)CCCC2(F)F)cc1-c1cnn2cc(Cl)cnc12 | – | 11000 nM | > 100000 nM | > 100000 nM | 22000 nM | 5000 nM | 1200 nM | – | > 100000 nM | 990 nM | 206 µM (≈ 87.7 µg/mL) | 60 min | 42 min | 2.3 L/kg | 114 µM (≈ 48.6 µg/mL) | 27 mL/min/kg |
| O=C(NCC(F)(F)F)c1cc(-c2cnn3cc(-c4ccc(OCCN5CCCCC5)cc4)cnc23)cs1 | – | 2700 nM | 1200 nM | 4700 nM | 41 nM | 19 nM | 12000 nM | 46% | > 100000 nM | – | – | – | – | – | – | – |
| Cn1cc(-c2cnc3c(-c4csc(C(=O)N[C@@H]5CCCC[C@@H]5N)c4)cnn3c2)cn1 (racemic) | 54 | 420 nM | 1400 nM | 660 nM | 3.3 nM | 3.9 nM | 230 nM | – | > 10000 nM | – | – | – | – | – | 68 µM (≈ 28.7 µg/mL) | – |
